Measurements: US10390536B2, “Methods, compounds and compositions for repelling insects and/or arachnids” (National Center for Scientific Research “Demokritos”, priority 2013, dated 2019)
Where two headings read alike, the source gives them in different places.

Columns and labels:
Type in all cases: in vivo
[1] = test system: Anopheles gambiae (Giles) ss strain 16CSS female mosquitoes; assay: warm body repellence assay (mosquito landings); conditions: for repellent activity in the warm body assay (in words): candidate compounds, initially 1.0-5.0 μg/cm^2 (about 5-31.5 nmole/cm^2)
Procedure: To test the behavior of female mosquitoes to an essential oil containing OBP binding components, a previously described repellence assay [Kröber et al. (2010). An In Vitro Assay for Testing Mosquito Repellents Employing a Warm Body and Carbon Dioxide as a Behavioral Activator. Journal of the American Mosquito Control Association 26(4) 381-386] was conducted that measures the number of mosquito landings on a warm surface onto which an essential oil containing at least one candidate compound was applied.
To conduct a repellency assay, a selected essential oil or ethanol negative control was applied to a warm body at a dose of about 3.8 μg/cm^2 and allowed to dry for 40 seconds in order to allow evaporation of the solvent before introduction into the test cage with mosquitoes. As positive control for repellence, DEET dissolved in ethanol was applied to the warm body at the same dose. The treated warm body in conjunction with a pulse of carbon dioxide was introduced into the test cage containing fifty Anopheles gambiae (Giles) ss strain 16CSS female mosquitoes that were 4-11 days old and the number of mosquito landings on the warm body occurring within a 2-minute period was counted. Each candidate compound was tested in five different cages (i.e., 250 female mosquitoes) in a randomized design, and the ethanol control and up to four candidate compounds were tested in each cage. Raw data on numbers of landings by mosquitoes were analyzed using a linear mixed model accounting for treatment, experimental day, the individual cage, the number of females per cage and the level of the carbon dioxide pulse in ppm using R (R Development Core Team, 2010) and the packages LME4 (Bates and Maechler, Ime4: Linear mixed-effects models using {S4} classes.{R} package version 0.999375-32, 2009) and NLME (Pinheiro et al, nlme: Linear and Nonlinear Mixed Effects Models, 2010; the R Development Core Team, R: A Language and Environment for Statistical Computing, 2010). Repellent values were calculated from counted landings on treatments versus the overall landings on pooled controls.
To test the behavior of female mosquitoes to a candidate compound identified in Example 5, behavioral assays were made using the identified compounds. The repellent assay was performed as described in Example 3, except that candidate compounds were dissolved in ethanol and tested initially at doses between 1.0 and 5.0 μg/cm^2 (about 5-31.5 nmole/cm^2) and, whenever necessary, at lower and/or higher doses as well. Besides the compounds identified in Example 5, compounds related to these were also tested including ethyl-cinnamate and butyl-cinnamate (Table 4).
To test the behavior of female mosquitoes to various combinations of candidate compounds identified in Example 6, repellence assays were made as in Example 3. These repellent assays were made to compare the effectiveness of the strongest repellent compounds identified in Example 6, including, without limitation, carvacrol, ethyl cinnamate, butyl cinnamate, and cumin alcohol with that of DEET.
The doses tested were 2, 4, 6 10 and 20 nmol/cm^2 for the single compounds. The binary 50:50 mixtures were tested at 2, 6, 10 and 20 nmol/cm^2, with each compound making up half the amount tested, so that, for example, the 2 nmol/cm^2 concentration in column A+B represents 1 nmol/cm^2 of A and 1 nmol/cm^2 of B in a binary mixture. DEET was also tested at 25 nmol (top response) and carvacrol was tested at the additional dose of 2.5 nmol (second from left within its column). As an indication, DEET at 20 nmol/cm^2=3.8 μg/cm^2. Mosquitoes were activated using a puff of CO2 from a gas tank upon introduction of the warm body into the test cage containing 50±5 A. gambiae females and mosquito landings were counted for 2 minutes. Each treatment (dose) was tested using five test cages, i.e. on a total of 250 female A. gambiae. […]

Culex spp. = assay: experimental hut field trial of spatial repellence, Culex; conditions: single compound, 1 ml in open vial in MM-X trap
Procedure: (§1) To test the effects of repellent compounds or compositions disclosed herein on mosquitoes in a controlled environment resembling actual living quarters and conditions, field trials with standardized experimental huts were conducted at Kainji Dam in North Central Nigeria.
(§2) Six such huts were built in a straight line, and the distance between huts was 11 meters. These huts follow a traditional square design, the walls are built with concrete blocks that are subsequently plastered with cement, each wall has a window. The ceiling is plywood and the roof is thatched with eaves that are open, thereby allowing free flow of air into and out of the hut, and thus entry and exit of mosquitoes. There is a door for entry and exit. Two opposing sides of each hut have window exit traps and screened verandas to capture mosquitoes leaving via the windows or eaves. Each hut is raised off the ground on a concrete platform and surrounded by a moat filled with water in order to prevent ants from entering. Each hut is fitted with a mattress and an untreated bed net for sleepers. These huts are similar in design and concept to those used previously elsewhere for studying mosquito behavior and measuring the efficacy of various mosquito control products or intervention methods in Tanzania and Gambia. For design parameters refer to WHOPES 2005. The huts are adjacent to a tributary of the River Niger at a distance of 10 km from the Kainji Dam site and face rice fields known to harbor permanent mosquito breeding sites. The mosquitoes endemic to this area of Nigeria are highly endophillic, that is, they rest mainly indoors.
(§3) Human volunteers that participated as sleepers in this field trial were provided with anti-malarial chemical prophylaxis on a weekly basis, and the protocols used herein were reviewed and approved by the Research Ethics Review Committee of the Nigerian Institute of Medical Research. Six male adult volunteers, aged between 25 and 35 years old, were recruited to sleep in the huts described above. Sleepers were allocated to huts randomly for each series of trials, and this randomization process occurred nightly. The volunteers entered the huts by 21:00 each night and remained inside the huts until 06:30 the following morning. Each morning, the windows were closed and the exit traps blocked with a piece of cloth to prevent mosquitoes that entered from exiting. The traps were then put in a freezer at −20° C. to kill all the mosquitoes before being emptied for identification. By means of a sucking aspirator the verandas and rooms were visually searched for live mosquitoes and any insects found were collected in labelled cups. A 10-minute search was conducted for each hut (room and veranda traps). The exit traps were emptied into a labelled cup and all the mosquitoes placed in the freezer at −20° C. for about 30 minutes before morphological identification.
(§4) The Mosquito Magnet trap Model-X (MM-X trap made by the firm formerly known as American Biophysics (ABC), USA) is a 12V battery operated counter-flow trap that was used as the repellent dispersing device to evaluate the efficacy of repellent compounds or compositions disclosed herein. Four compounds, carvacrol, cumin alcohol, ethyl cinnamate, and butyl cinnamate, were evaluated in comparison to DEET as a nonproprietary conventional repellent in a first experiment. The chemical compounds were provided in liquid form: carvacrol (98%), butyl cinnamate (98%), ethyl cinnamate (98%), cumin alcohol (97%) and DEET (97%). […]

Anopheles gambiae s.l. = assay: experimental hut field trial of spatial repellence, Anopheles; conditions: single compound, 1 ml in open vial in MM-X trap
Procedure: as §1, §2, §3, §4

[2] = 2 nmol (per cm^2, total for mixtures, 50:50)
[3] = 4 nmol (per cm^2, total for mixtures, 50:50)
[4] = 6 nmol (per cm^2, total for mixtures, 50:50)
[5] = 10 nmol (per cm^2, total for mixtures, 50:50)
[6] = Anopheles gambiae, 2 min, read-out: Median Repellency (%)
[7] = 20 nmol (per cm^2, total for mixtures, 50:50)

Structure (SMILES) | Median repellence % [1, 2] [%] | Median repellence % [1, 3] [%] | Median repellence % [1, 4] [%] | Median repellence % [1, 5] [%] | Median repellence % ([1]; 25 nmol (per cm^2)) [%] | median repellency (%) at 25 nmol/cm2 [1, 6] [%] | repellent activity in the warm body assay (in words) [1] | repellent activity (in words) ([1]; total concentration 2 nmole/cm^2) | mosquito counts on the inside walls of the huts (in words) (Culex spp.) | mosquito counts on the inside walls of the huts (in words) (Anopheles gambiae s.l.) | Median repellence % [1, 7] [%] | median repellency (%) at 20 nmol/cm2 [1, 6] [%] | spatial repellent effect, induced exophily (in words) (Culex spp.; per night) | spatial repellent effect, induced exophily (in words) (Anopheles gambiae s.l.; per night) | median repellency (%) at 20 nmol/cm2 ([1]; Anopheles gambiae, 2 min, 20 nmole per cm^2, read-out: Median Repellency (%)) [%]
Cc1ccc(C(C)C)cc1O [carvacrol, 5-isopropyl-2-methylphenol] | 13 | 55 | 40 | 59 | 93 | 93.3 | activity comparable to DEET | retained repellent activity | reduced mosquito counts on the inside walls | reduced mosquito counts on the inside walls | – | – | – | – | –
CC(C)c1ccc(CO)cc1 [cumin alcohol] | −4 | 38 | 46 | 53 | – | – | activity comparable to DEET | – | – | – | 93 | 92.3 | significantly lower than that of DEET | significantly lower than that of DEET | –
CCN(CC)C(=O)c1cccc(C)c1 [DEET, N,N-diethyl-3-methylbenzamide, reference compound] | 2 | 41 | 80 | 96 | 100 | – | – | – | reduced mosquito counts on the inside walls | reduced mosquito counts on the inside walls | 98 | – | – | – | 98.5
